This note sets out measurements from PubChem BioAssay AID330 (DTP/NCI, 2004).

Several values for one entry are separate records, joined by “and”; a condition that tells them apart may be missing. Equal entries are not always repeated. Toxic doses and inconclusive results are not listed.

In this assay the test system is P388 leukemia ip, CD2F1 mice, survival T/C. In words: NCI In Vivo Anticancer Drug Screen. Data for tumor model P388 Leukemia (intraperitoneal) in CD2F1 (CDF1) mice. Conditions: endpoint: median survival time, higher = longer survival. The method, boiled down:
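Mice carrying the transplanted tumor received test compound or vehicle. Survival was recorded in each group, and the value is the treated-group measurement divided by that of the vehicle-treated control group.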

Setting [1] is: dose: 60.0 mg/kg/injection, schedule: Q01DX005 (ip), vehicle: saline with Tween-80.
Setting [2] is: dose: 120.0 mg/kg/injection, schedule: Q01DX005 (ip), vehicle: saline with Tween-80.
[3] abbreviates: dose: 240.0 mg/kg/injection, schedule: Q01DX005 (ip), vehicle: saline with Tween-80.
Setting [4] is: dose: 50.0 mg/kg/injection, schedule: Q01DX005 (ip), vehicle: Klucel (hydroxypropylcellulose) (HPC).
[5] abbreviates: dose: 100.0 mg/kg/injection, schedule: Q01DX005 (ip), vehicle: Klucel (hydroxypropylcellulose) (HPC).
Setting [6] is: dose: 200.0 mg/kg/injection, schedule: Q01DX005 (ip), vehicle: Klucel (hydroxypropylcellulose) (HPC).
The mark [7] stands for this setting: dose: 50.0 mg/kg/injection, schedule: Q01DX009 (ip), vehicle: Klucel (hydroxypropylcellulose) (HPC).
Setting [8] is: dose: 100.0 mg/kg/injection, schedule: Q01DX009 (ip), vehicle: Klucel (hydroxypropylcellulose) (HPC).
Setting [9] is: dose: 100.0 mg/kg/injection, schedule: Q04DX003 (ip), vehicle: Klucel (hydroxypropylcellulose) (HPC).
[10] abbreviates: dose: 200.0 mg/kg/injection, schedule: Q04DX003 (ip), vehicle: Klucel (hydroxypropylcellulose) (HPC).
Setting [11] is: dose: 50.0 mg/kg/injection, schedule: Q01DX009 (ip), vehicle: saline.
The mark [12] stands for this setting: dose: 100.0 mg/kg/injection, schedule: Q01DX009 (ip), vehicle: saline.
Setting [13] is: dose: 200.0 mg/kg/injection, schedule: Q01DX009 (ip), vehicle: saline.

Turning to `CCC(=O)N(C)C(C)C(=O)OC1CC(=O)N(C)c2cc(cc(OC)c2Cl)CC(C)CCCC(OC)C2(O)CC(OC(=O)N2)C(C)C2OC12C` (stereo not drawn), the T/C reads like this: (dose: 1.56 micrograms/kg/injection, schedule: Q01DX009 (ip), vehicle: saline + alcohol) 106 % of control; (dose: 3.12 micrograms/kg/injection, schedule: Q01DX009 (ip), vehicle: saline + alcohol) 105 % of control; (dose: 6.25 micrograms/kg/injection, schedule: Q01DX009 (ip), vehicle: saline + alcohol) 110 % of control; (dose: 12.5 micrograms/kg/injection, schedule: Q01DX009 (ip), vehicle: saline + alcohol) 108 % of control; (dose: 50.0 micrograms/kg/injection, schedule: Q01DX009 (ip), vehicle: saline + alcohol) 105 % of control; (dose: 100.0 micrograms/kg/injection, schedule: Q01DX009 (ip), vehicle: saline + alcohol) 109 % of control. Further, the T/C (dose: 200.0 micrograms/kg/injection, schedule: Q01DX009 (ip), vehicle: saline + alcohol) is 102 % of control and the T/C (dose: 400.0 micrograms/kg/injection, schedule: Q01DX009 (ip), vehicle: saline + alcohol) is 114 % of control.

On to `c1ccc(-c2csnn2)cc1`, for which the T/C is, setting by setting: (dose: 25.0 mg/kg/injection, schedule: Q04DX003 (ip), vehicle: saline with Tween-80) 99 % of control; (dose: 50.0 mg/kg/injection, schedule: Q04DX003 (ip), vehicle: saline with Tween-80) 100 % of control; (dose: 100.0 mg/kg/injection, schedule: Q04DX003 (ip), vehicle: saline with Tween-80) 99 % of control; (dose: 200.0 mg/kg/injection, schedule: Q04DX003 (ip), vehicle: saline with Tween-80) 106 % of control.

As to `CC(=O)[O][Sn]([CH3])([CH3])[CH3]`, the T/C is, setting by setting: (dose: 0.37 mg/kg/injection, schedule: Q01DX009 (ip), vehicle: saline) 112 % of control; (dose: 0.75 mg/kg/injection, schedule: Q01DX009 (ip), vehicle: saline) 112 % of control.

As for `ClCCCCOC1CCCCO1` (stereo not drawn), the T/C runs as follows: under setting [1], 107 % of control; under setting [2], 100 % of control; under setting [3], 105 % of control.

With `CC1C=CCC2C(=O)c3cccc([N+](=O)[O-])c3C(=O)C12` (stereo not drawn), the T/C is, setting by setting: under setting [4], 100 % of control; under setting [5], 96 % of control; under setting [6], 92 % of control.

For `NC1=NN(O)C2=CC(F)C=CC2=N1` (stereo not drawn), the T/C was 103 % of control and 91 % of control under setting [7]; 101 % of control and 114 % of control and 92 % of control under setting [8]; 100 % of control and 91 % of control (dose: 200.0 mg/kg/injection, schedule: Q01DX009 (ip), vehicle: Klucel (hydroxypropylcellulose) (HPC)); 105 % of control (dose: 400.0 mg/kg/injection, schedule: Q01DX009 (ip), vehicle: Klucel (hydroxypropylcellulose) (HPC)).

For the compound `ICCN(CCI)c1ccc2c(ccc3ccccc32)c1`, the T/C under setting [9] was 102 % of control; the T/C under setting [10] was 118 % of control; the T/C (dose: 400.0 mg/kg/injection, schedule: Q04DX003 (ip), vehicle: Klucel (hydroxypropylcellulose) (HPC)) is 118 % of control.

Take `O=S1(=O)CCN(Cc2ccco2)CC1`: the T/C runs as follows: under setting [7], 100 % of control; under setting [8], 99 % of control.

On to `COc1ccc(/C=N\Nc2cc(C)nc3ccc(C4CCCCC4)cc23)c2ccccc12`, for which the T/C under setting [1] is 99 % of control, the T/C under setting [2] was 104 % of control and the T/C under setting [3] is 93 % of control.

Turning to `CC(C)NC(=O)OCc1c(COC(=O)NC(C)C)c(Sc2ccccc2)n2c1CCC2`, the T/C by setting is: (dose: 25.0 mg/kg/injection, schedule: Q01DX005 (ip), vehicle: saline with Tween-80) 154 % of control; (dose: 50.0 mg/kg/injection, schedule: Q01DX005 (ip), vehicle: saline with Tween-80) 163 % of control; (dose: 100.0 mg/kg/injection, schedule: Q01DX005 (ip), vehicle: saline with Tween-80) 110 % of control.

Regarding `NC(N)=O`, the T/C was 100 % of control (dose: 12.5 mg/kg/injection, schedule: Q01DX009 (ip), vehicle: saline); 105 % of control (dose: 25.0 mg/kg/injection, schedule: Q01DX009 (ip), vehicle: saline); 105 % of control under setting [11]; 102 % of control under setting [12]; 100 % of control under setting [13]; 98 % of control (dose: 400.0 mg/kg/injection, schedule: Q01DX009 (ip), vehicle: saline).

As to `O=C1CC2CC3C1C2n1c(=O)n(-c2ccccc2)c(=O)n13` (stereo not drawn), the T/C was 107 % of control (dose: 100.0 mg/kg/injection, schedule: Q01DX001 (ip), vehicle: Klucel (hydroxypropylcellulose) (HPC)); 101 % of control (dose: 200.0 mg/kg/injection, schedule: Q01DX001 (ip), vehicle: Klucel (hydroxypropylcellulose) (HPC)); 96 % of control (dose: 400.0 mg/kg/injection, schedule: Q01DX001 (ip), vehicle: Klucel (hydroxypropylcellulose) (HPC)).

On to `Cc1cc(NCCCCNCCCNc2cc(C)nc3cc(N)ccc23)c2ccc(N)cc2n1`, for which the T/C (dose: 12.5 mg/kg/injection, schedule: Q01DX009 (ip), vehicle: other) was 150 % of control and the T/C (dose: 25.0 mg/kg/injection, schedule: Q01DX009 (ip), vehicle: other) was 175 % of control.

In the case of `CCOC(=O)C1=CNc2c(C#N)cnn2C1(C(=O)OCC)c1c[nH]c2ccccc12` (stereo not drawn), the T/C was 109 % of control (dose: 25.0 mg/kg/injection, schedule: Q01DX005 (ip), vehicle: Klucel (hydroxypropylcellulose) (HPC)); 102 % of control under setting [4]; 98 % of control under setting [5]; 109 % of control under setting [6].

Regarding `CC1C(C(=O)NCCc2ccccc2)CC2CCCCN21` (stereo not drawn), the T/C under setting [1] is 102 % of control and the T/C under setting [2] was 96 % of control.

For `CC(=O)OC(=O)C(NC(=O)C(N)CC(C)C)C(C)C` (stereo not drawn), the T/C was 103 % of control under setting [11], 94 % of control under setting [12] and 100 % of control under setting [13].

With `CC(=O)Nc1cc(C)cc(C(=O)O)c1C`, the T/C (dose: 50.0 mg/kg/injection, schedule: Q01DX009 (ip), vehicle: saline with Tween-80) is 97 % of control; the T/C (dose: 100.0 mg/kg/injection, schedule: Q01DX009 (ip), vehicle: saline with Tween-80) is 100 % of control; the T/C (dose: 200.0 mg/kg/injection, schedule: Q01DX009 (ip), vehicle: saline with Tween-80) is 98 % of control; the T/C (dose: 400.0 mg/kg/injection, schedule: Q01DX009 (ip), vehicle: saline with Tween-80) is 98 % of control.

For the compound `COc1cc2c(O)c(c1)CCCC1=CC(=O)C=C(CCC2)C1=O`, the T/C was 99 % of control (dose: 100.0 mg/kg/injection, schedule: Q01DX001 (ip), vehicle: saline with Tween-80); 101 % of control (dose: 200.0 mg/kg/injection, schedule: Q01DX001 (ip), vehicle: saline with Tween-80); 94 % of control (dose: 400.0 mg/kg/injection, schedule: Q01DX001 (ip), vehicle: saline with Tween-80).

On to `O=C1CC=C2C3CC4N(CCC45c4cc(O)c(O)cc4N1C25)C/C3=C\CBr` (stereo not drawn), for which the T/C (dose: 7.5 mg/kg/injection, schedule: Q01DX005 (ip), vehicle: Klucel (hydroxypropylcellulose) (HPC)) is 106 % of control; the T/C (dose: 15.0 mg/kg/injection, schedule: Q01DX005 (ip), vehicle: Klucel (hydroxypropylcellulose) (HPC)) was 108 % of control; the T/C (dose: 30.0 mg/kg/injection, schedule: Q01DX005 (ip), vehicle: Klucel (hydroxypropylcellulose) (HPC)) was 123 % of control.

`CCCCCCCCOC(=O)NCCCCC(N)C(=O)O` (stereo not drawn): the T/C is 87 % of control under setting [11], 101 % of control under setting [12] and 103 % of control under setting [13].

Turning to `O=C(O)C1CCC2(CC1)SCC1(CS2)CSC2(CCC(C(=O)O)CC2)SC1` (stereo not drawn), the T/C is 104 % of control (dose: 7.5 mg/kg/injection, schedule: Q01DX009 (ip), vehicle: saline with Tween-80); 99 % of control (dose: 15.0 mg/kg/injection, schedule: Q01DX009 (ip), vehicle: saline with Tween-80); 107 % of control (dose: 30.0 mg/kg/injection, schedule: Q01DX009 (ip), vehicle: saline with Tween-80).

In the case of `Nc1[nH]c(=S)[nH]c(=O)c1N=Cc1ccc2c(c1)OCO2`, the T/C runs as follows: under setting [9], 108 % of control and 113 % of control; under setting [10], 112 % of control and 114 % of control.
